Drawing on patent publication EP0044992A1, “Lactams, process for their preparation and pharmaceutical compositions containing them” (Dr. Karl Thomae GmbH, priority 1980, dated 1982), this text covers MIC and ED50 for six molecules.

Test [1] relates to E. coli R+TEM (ß-Lactamase-Träger). Kind of test: Serial dilution test in microtiter system (bacteriostasis, MIC). The class given is cell-based. The note with it: Escherichia coli, read-out: Minimale Hemmkonzentration E.coli R+TEM. The procedure: (§1) Für die Untersuchungen wurde die Methode des Reihenverdünnungstestes im Mikrotitersystem angewandt. Die Prüfung der Substanzen auf Bakteriostase erfolgte in flüssigem Medium. Es wurde die Bakteriostasewirkung bei folgenden Konzentrationen untersucht: • 128, 64, 32, 16, 8, 4, 2, 1, 0,5, 0,25, 0,12, 0,06jug/ml. Es wurde ein Nährboden folgender Zusammensetzung benutzt: 10 g Pepton, 8 g Fleischextrakt-Oxoid, 3 g Natriumchlorid, 2 g sek. Natriumphosphat werden mit dest. Wasser auf […] aufgefüllt (pH 7,2 - 7,4). Lediglich bei der Testung gegen Streptokokken wurde 1 % Glucose hinzugefügt. Das Alter der Primärkulturen betrugt etwa 20 Stunden. Die Einstellung der Keimsuspension erfolgte am Photometer (nach "Eppendorf") (Reagenzglas-Durchmesser 14 mm, Filter 546nm) anhand der Trübung einer Bariumsulfat-Vergleichssuspension, die durch eine Bariumsulfat-Aufschwemmung erzeugt wurde, welche durch die Zugabe von 3,0 ml 1%ige Barium-chloridlösung in 97 ml 1%ige Schwefelsäure entstand. Nach der Einstellung wurden Streptococcus Aronson im Verhältnis 1:15 und die übrigen Testkeime im Verhältnis 1:1500 mit einer Kochsalzlösung weiter verdünnt.
(§2) 16 mg der jeweiligen Substanz wurden in 10 ml-Meßkolben eingewogen und mit dem Lösungsmittel bis zur Marke aufgefüllt. Die weitere Verdünnungsreihe wurde mit destilliertem Wasser oder dem jeweiligen Lösungsmittel hergestellt.
(§3) Die Vertiefungen der Mikrotiterplatten wurden mit 0,2 ml Nährmedium, 0,01 ml der entsprechenden Substanzverdünnung und mit einem Tropfen Keimsuspension (0,01 ml) beschickt und 18 bis 20 Stunden bei 37 °C bebrütet. Eine Lösungsmittelkontrolle wurde stets mitgeführt.
(§4) Die Ablesung wurde makroskopisch vorgenommen, wobei die jeweilige Grenzkonzentration (= niedrigste noch bakteriostatisch wirksame Konzentration) ermittelt wurde.
(§5) Als Testorganismen wurden benützt: • Staphylococcus aureus SG 511, Escherichia coli ATCC 11 775, Pseudomonas aeruginosa Hamburgensis und Pseudomonas; aeruginosa walter, Serratia marcescens ATCC 13 880, Klebsiella pneumoniae ATCC 10 031 und BC 6, Proteus mirabilis Hamburgensis, Proteus rettgeri, Enterobacter cloacae ATCC 13 047, E. coli R+TEM (ß-Lactamase-Träger).

Test [2] relates to Enterobacter cloacae ATCC 13 047. The test is described as above. The class given is cell-based. The settings on record: liquid medium, 18 to 20 h at 37 °C, read-out: Minimale Hemmkonzentration Ent. cloacae ATCC 13047. The procedure: as §1, §2, §3, §4, §5
The test system of test [3] is Escherichia coli ATCC 11 775. The description is as above. The note with it: liquid medium, 18 to 20 h at 37 °C, read-out: Minimale Hemmkonzentration E.coli ATCC 11775. The class given is cell-based. The procedure: as §1, §2, §3, §4, §5
For test [4], the system named is Klebsiella pneumoniae ATCC 10 031. The test is described as above. The note with it: liquid medium, 18 to 20 h at 37 °C, read-out: Minimale Hemmkonzentration Kl.pneum. ATCC 10031. Format: cell-based. Here is the method:
as §1, §2, §3, §4, §5

Test [5] relates to Klebsiella pneumoniae BC 6. The description is as above. The settings on record: BC6, liquid medium, 18 to 20 h at 37 °C, read-out: Minimale Hemmkonzentration Kl.pneum. BC 6. The class given is cell-based. Here is the method:
as §1, §2, §3, §4, §5

The subject of test [6] is Proteus mirabilis Hamburgensis. The description is as above. The class given is cell-based. The note with it: liquid medium, 18 to 20 h at 37 °C, read-out: Minimale Hemmkonzentration Prot. mirab. Hbg. Here is the method: as §1, §2, §3, §4, §5
Test [7] relates to Proteus rettgeri. The test is described as above. The class given is cell-based. The note with it: Providencia rettgeri; liquid medium, 18 to 20 h at 37 °C; read-out: Minimale Hemmkonzentration Prot. Rettg. Here is the method: as §1, §2, §3, §4, §5
Test [8] deals with Pseudomonas aeruginosa Hamburgensis. The description is as above. The note with it: liquid medium, 18 to 20 h at 37 °C, read-out: Minimale Hemmkonzentration Pseud. Hbg. Format: cell-based. Here is the method: as §1, §2, §3, §4, §5
The test system of test [9] is Pseudomonas aeruginosa walter. The test is described as above. Format: cell-based. The note with it: liquid medium, 18 to 20 h at 37 °C, read-out: Minimale Hemmkonzentration Pseud.W. Here is the method: as §1, §2, §3, §4, §5
The subject of test [10] is Serratia marcescens ATCC 13 880. Described as above. Format: cell-based. The note with it: liquid medium, 18 to 20 h at 37 °C, read-out: Minimale Hemmkonzentration Serr. marcesc. ATCC 13880. The procedure: as §1, §2, §3, §4, §5
Test [11] relates to Staphylococcus aureus SG 511. The test is described as above. The class given is cell-based. The settings on record: SG511, liquid medium, 18 to 20 h at 37 °C, read-out: Minimale Hemmkonzentration Staph. aureus SG 511. Here is the method: as §1, §2, §3, §4, §5
In test [12] the test system is E. coli ATCC 11 775. As to the kind of experiment: In vivo activity, experimental intraperitoneal E. coli infection in mice. The note with it: Escherichia coli, ATCC11, sc, 168 h; female NMRI mice, i.p. E. coli infection, s.c. application once 1 h after infection, 7 days observation; dose at which 50 % of animals survive. Details: species or system Mäuse. Here is the method:
Eine Reihe von erfindungsgemäßen Verbindungen wurde in vivo bei experimentellen Infektionen an Mäusen untersucht. Man verwendete als pathogene Bakterien E. coli ATCC 11 775. Es wurde eine intraperitoneale Infektion mit 0,2 ml einer Bakteriensuspension (mit 5 % Mucin) gesetzt. Dies entspricht etwa 1,4 x 10^6 Keime E. coli/Maus. Weibliche Mäuse vom Stamm NMRI wurden in Gruppen von jeweils 10 Tieren aufgeteilt, zwei Gruppen blieben unbehandelt, die restlichen Gruppen wurden mit verschiedenen Dosen der jeweiligen erfindungsgemäßen Penicilline und Cephalosporine subcutan zur Bestimmung der ED50 (Dosis bei der 50 % der Tiere überleben) behandelt. Es wurde einmal eine Stunde: nach Setzen der Injektion therapiert.
Der Beobachtungszeitraum betrug in beiden Fällen 7 Tage. Die Ergebnisse dieser Teste mit repräsentativen Vertretern der erfindungsgemäßen Penicilline und Cephalosporine sind in der Tabelle 2 dargestellt.

By ED50 is commonly meant the midpoint of the dose-response relation. A high value points to a need for a large dose.

SMILES strings stand for the structures. Values after ≈ are worked out from the molar mass of the structure shown.

In the case of `CCOC(=O)Oc1ccc([C@@H](NC(=O)Nc2cnc(Nc3ccc(S(N)(=O)=O)cc3)nc2O)C(=O)N[C@@H]2C(=O)N3[C@@H]2SC(C)(C)[C@@H]3C(=O)O)cc1` [A, D-α-[3-(2-p-Aminosulfonylanilino-4-hydroxy-5-pyrimidinyl)-ureido]-p-äthoxycarbonyloxy-benzylpenicillin-Natrium], the MIC in [1] was over 64 µg/mL; in test [2], 1 µg/mL (≈ 1.34 µM); in test [3] it was 0.25 µg/mL (≈ 0.336 µM); in [4] it was 2 µg/mL (≈ 2.69 µM); in test [5] it was 2 µg/mL (≈ 2.69 µM); in [6] it was 0.12 µg/mL (≈ 0.161 µM). Further, the MIC in test [7] is 1 µg/mL (≈ 1.34 µM); in test [8], 2 µg/mL (≈ 2.69 µM); in test [9], 2 µg/mL (≈ 2.69 µM); in test [10], 0.25 µg/mL (≈ 0.336 µM); in [11], 0.5 µg/mL (≈ 0.671 µM). Further, the ED50 in test [12] came out at 5.5 mg/kg.

Turning to `CC1(C)S[C@@H]2[C@H](NC(=O)[C@H](NC(=O)N3CCNC3=O)c3ccccc3)C(=O)N2[C@H]1C(=O)O` [Azlocillin, reference compound], the MIC in test [1] is over 64 µg/mL; in test [2], 32 µg/mL (≈ 69.3 µM); in test [3] it was 8 to 16 µg/mL (≈ 17.3 to 34.7 µM); in test [4] it was 32 µg/mL (≈ 69.3 µM); in test [5], 32 µg/mL (≈ 69.3 µM); in [6], 2 µg/mL (≈ 4.33 µM). In addition, the MIC came to 8 µg/mL (≈ 17.3 µM) in test [7]; 8 µg/mL (≈ 17.3 µM) in test [8]; 8 µg/mL (≈ 17.3 µM) in [9]; 4 µg/mL (≈ 8.67 µM) in [10]; 2 µg/mL (≈ 4.33 µM) in test [11]. Besides, the 50% effective dose (ED50) in [12] was over 100 mg/kg.

Consider `CC(=O)Oc1ccc([C@@H](NC(=O)Nc2cnc(Nc3ccc(S(N)(=O)=O)cc3)nc2O)C(=O)N[C@@H]2C(=O)N3[C@@H]2SC(C)(C)[C@@H]3C(=O)O)cc1` [B, D-α-[3-(2-p-Aminosulfonylanilino-4-hydroxy-5-pyrimidinyl)-ureido]-p-methylcarbonyloxy-benzylpenicillin-Natrium], for which the MIC in test [1] was over 64 µg/mL; in test [2], 2 µg/mL (≈ 2.8 µM); in [3], 0.25 µg/mL (≈ 0.35 µM); in test [4] it was 4 µg/mL (≈ 5.6 µM); in test [5], 2 µg/mL (≈ 2.8 µM); in test [6], 0.12 µg/mL (≈ 0.168 µM). Moreover, the MIC in [7] was 2 µg/mL (≈ 2.8 µM); in test [8] it was 4 µg/mL (≈ 5.6 µM); in test [9], 2 µg/mL (≈ 2.8 µM); in test [10] it was 0.5 µg/mL (≈ 0.7 µM); in test [11], 0.5 µg/mL (≈ 0.7 µM). Also, the median effective dose (ED50) in test [12] stood at 4.5 mg/kg.

Regarding `CCOC(=O)Oc1ccc([C@@H](NC(=O)Nc2cnc(Nc3ccc(S(N)(=O)=O)cc3)nc2O)C(=O)N[C@@H]2C(=O)N3C(C(=O)O)=C(CSc4nnnn4C)CS[C@H]23)cc1` [C, Natrium-7-{D-α-[3-(2-p-aminosulfonylanilino-4-hydroxy-5-pyrimidinyl)-ureido]-p-äthoxy-carbonyloxy-phenylacetamido}-3-[(1-methyl-tetrazol-5-yl)-thiomethyl]-ceph-3-em-4-carboxylat], the MIC in test [1] amounted to 4 µg/mL (≈ 4.67 µM); in test [2], 0.5 µg/mL (≈ 0.584 µM); in [3], 0.12 µg/mL (≈ 0.14 µM); in [4], 0.5 µg/mL (≈ 0.584 µM); in test [5] it was 0.25 µg/mL (≈ 0.292 µM); in test [6] it was 0.12 µg/mL (≈ 0.14 µM). Also, the MIC is 1 µg/mL (≈ 1.17 µM) in test [7]; 8 µg/mL (≈ 9.34 µM) in [8]; 4 µg/mL (≈ 4.67 µM) in test [9]; 0.25 µg/mL (≈ 0.292 µM) in test [10]; 1 µg/mL (≈ 1.17 µM) in test [11]. For the same molecule, the ED50 in test [12] worked out at 0.6 mg/kg.

Regarding `CO/N=C(\C(=O)N[C@@H]1C(=O)N2C(C(=O)O)=C(COC(N)=O)CS[C@H]12)c1ccco1` [Cefuroxim, reference compound], the MIC in test [1] turned out to be 4 µg/mL (≈ 9.43 µM); in [2] it was 32 µg/mL (≈ 75.4 µM); in [3], 8 µg/mL (≈ 18.9 µM); in test [4], 2 µg/mL (≈ 4.71 µM); in test [5] it was 4 µg/mL (≈ 9.43 µM); in test [6], 0.5 µg/mL (≈ 1.18 µM). The MIC in test [7] is 2 µg/mL (≈ 4.71 µM); in test [8], over 128 µg/mL; in test [9], over 128 µg/mL; in [10] it was 8 µg/mL (≈ 18.9 µM); in test [11], 1 µg/mL (≈ 2.36 µM). Moreover, in test [12], the ED50 was over 100 mg/kg.

Regarding `CC(=O)Oc1ccc([C@@H](NC(=O)Nc2cnc(Nc3ccc(S(N)(=O)=O)cc3)nc2O)C(=O)N[C@@H]2C(=O)N3C(C(=O)O)=C(CSc4nnnn4C)CS[C@H]23)cc1` [D, Natrium-7-{D-α-[3-(2-p-aminosulfonyl-anilino-4-hydroxy-5-pyrimidinyl)-ureido]-p-methylcarbonyloxy-phenylacetamido}-3-[(1-methyl-tetrazol-5-yl)-thiomethyl]-ceph-3-em-4-carboxylat], the MIC is 16 µg/mL (≈ 19.4 µM) in [1]; 4 µg/mL (≈ 4.84 µM) in [2]; 0.5 µg/mL (≈ 0.605 µM) in test [3]; 2 µg/mL (≈ 2.42 µM) in test [4]; 1 µg/mL (≈ 1.21 µM) in [5]; 0.25 µg/mL (≈ 0.302 µM) in test [6]. In addition, the MIC came out at 2 µg/mL (≈ 2.42 µM) in test [7]; 16 µg/mL (≈ 19.4 µM) in [8]; 8 µg/mL (≈ 9.68 µM) in [9]; 2 µg/mL (≈ 2.42 µM) in [10]; 1 µg/mL (≈ 1.21 µM) in test [11]. Also, in test [12], the ED50 is 3 mg/kg.
